In brackets after ≈: the same amount, converted by molar mass. Read-outs that look alike come from different tables or passages of the source.
Assays:
Format in all cases: cell-based
[1] = system: Mycoplasma pneumoniae (MPN); test: MIC by micro-broth dilution, Mycoplasma pneumoniae
Experimental: (§1) Organisms used in the analyses included Mycoplasma pneumoniae (MPN), M. hominis (Mh), M. fermentans (Mf), M. genitalium (Mg), M. penetrans (Mp) and Ureaplasma urealyticum (Uu). Minimum Inhibitory Concentrations (MICs) were determined using a micro-broth dilution method. Assays for Ureaplasma urealyticum were performed in 10B media and all other mycoplasma assays were carried out in SP4 medium.

M. hominis (Mh) = test: MIC by micro-broth dilution, M. hominis; settings: 49 isolates, SP4 medium
Experimental: as §1

M. fermentans (Mf) = test: MIC by micro-broth dilution, M. fermentans; settings: 19 isolates, SP4 medium
Experimental: as §1

[2] = system: Ureaplasma urealyticum (Uu); test: MIC by micro-broth dilution, Ureaplasma urealyticum
Experimental: as §1

M. genitalium (Mg) = test: MIC by micro-broth dilution, M. genitalium; settings: Mycoplasmoides genitalium, 2 isolates, one line per isolate, SP4 medium, read-out: MICs for Mg
Experimental: as §1

M. penetrans (Mp) = test: MIC by micro-broth dilution, M. penetrans; settings: 1 isolate, SP4 medium; for MIC: read-out: MICs for Mp
Experimental: as §1

[3] = MPN, 103 isolates, SP4 medium, read-out: MIC 90
[4] = Metamycoplasma hominis, read-out: MIC 90
[5] = Mycoplasmopsis fermentans, read-out: MIC 90
[6] = Uu, 99 isolates, 10B media, read-out: MIC 90

SMILES	MIC90 [1, 3] [µg/mL]	MIC90 (M. hominis (Mh); [4]) [µg/mL]	MIC90 (M. fermentans (Mf); [5]) [µg/mL]	MIC90 [2, 6] [µg/mL]	MIC (M. genitalium (Mg)) [µg/mL]	MIC (M. penetrans (Mp)) [µg/mL]	MIC90 (M. hominis (Mh))	MIC90 (M. fermentans (Mf)) [µg/mL]	MICs for Mp (M. penetrans (Mp))	MIC90 [1] [µg/mL]	MIC90 [2] [µg/mL]
CO/N=C1\CN(c2nc3c(cc2F)c(=O)c(C(=O)O)cn3C2CC2)CC1CN (racemic) [Gem, (R,S)-7-(3-aminomethyl-4-methoxyiminopyrrolidin-1-yl)-1-cyclopropyl-6-fluoro-4-oxo-1,4-dihydro-1,8-naphthyridine-3-carboxylic acid]	0.125 (≈ 0.321 µM)	≤ 0.008	≤ 0.008	0.25 (≈ 0.642 µM)	0.063 (≈ 0.162 µM)	≤ 0.008	–	–	–	–	–
CC[C@H]1OC(=O)[C@H](C)[C@@H](O[C@H]2C[C@@](C)(OC)[C@@H](O)[C@H](C)O2)[C@H](C)[C@@H](O[C@@H]2O[C@H](C)C[C@H](N(C)C)[C@H]2O)[C@](C)(O)C[C@@H](C)CN(C)[C@H](C)[C@@H](O)[C@]1(C)O [Azith, azithromycin]	≤ 0.008	–	2 (≈ 2.67 µM)	4 (≈ 5.34 µM)	≤ 0.008	≤ 0.008	–	–	–	–	–
CC[C@H]1OC(=O)[C@H](C)[C@@H](O[C@H]2C[C@@](C)(OC)[C@@H](O)[C@H](C)O2)[C@H](C)[C@@H](O[C@@H]2O[C@H](C)C[C@H](N(C)C)[C@H]2O)[C@](C)(OC)C[C@@H](C)C(=O)[C@H](C)[C@@H](O)[C@]1(C)O [Clar, clarithromycin]	≤ 0.008	–	64 (≈ 85.6 µM)	0.063 (≈ 0.0842 µM)	≤ 0.008	≤ 0.008	–	–	–	–	–
CCC[C@@H]1C[C@@H](C(=O)N[C@@H]([C@H]2O[C@H](SC)[C@H](O)[C@@H](O)[C@H]2O)[C@H](C)Cl)N(C)C1 [Clin, clindamycin]	–	–	–	–	–	–	≦0.008 ug/ml	0.031 (≈ 0.0729 µM)	≦0.008 ug/ml	–	–
Cc1c(F)c(N2CCNC(C)C2)cc2c1c(=O)c(C(=O)O)cn2C1CC1 (stereo not shown) [Grep, grepafloxacin]	0.125 (≈ 0.348 µM)	0.031 (≈ 0.0863 µM)	0.016 (≈ 0.0445 µM)	1 (≈ 2.78 µM)	0.125 (≈ 0.348 µM)	0.016 (≈ 0.0445 µM)	–	–	–	–	–
CN(C)[C@@H]1C(O)=C(C(N)=O)C(=O)[C@@]2(O)C(O)=C3C(=O)c4c(O)cccc4[C@@](C)(O)[C@H]3C[C@@H]12 [Tet, tetracycline]	–	32 (≈ 72 µM)	0.063 (≈ 0.142 µM)	–	0.063 (≈ 0.142 µM)	0.125 (≈ 0.281 µM)	–	–	–	0.25 (≈ 0.563 µM)	1 (≈ 2.25 µM)

Continued, in another order:

MIC90 [1, 3] [µg/mL]	MIC90 (M. hominis (Mh); [4]) [µg/mL]	MIC90 (M. fermentans (Mf); [5]) [µg/mL]	MIC90 [2, 6] [µg/mL]	MIC (M. genitalium (Mg)) [µg/mL]	MIC (M. penetrans (Mp)) [µg/mL]	MIC90 (M. hominis (Mh))	MIC90 (M. fermentans (Mf)) [µg/mL]	MICs for Mp (M. penetrans (Mp))	SMILES	MIC90 [1] [µg/mL]	MIC90 [2] [µg/mL]
0.5 (≈ 1.38 µM)	0.25 (≈ 0.692 µM)	0.031 (≈ 0.0858 µM)	1 (≈ 2.77 µM)	0.5 (≈ 1.38 µM)	0.031 (≈ 0.0858 µM)	–	–	–	C[C@H]1COc2c(N3CCN(C)CC3)c(F)cc3c(=O)c(C(=O)O)cn1c23 [Lev, levofloxacin]	–	–
–	–	–	–	–	–	0.031 µg/mL (≈ 0.0745 µM)	0.016 (≈ 0.0384 µM)	≦0.008 ug/ml	N[C@@H]1[C@H]2CN(c3nc4c(cc3F)c(=O)c(C(=O)O)cn4-c3ccc(F)cc3F)C[C@@H]12 [Trov, trovafloxacin]	–	–

Source: US20040229881A1, “Methods of use of antimicrobial compounds against pathogenic mycoplasma bacteria” (SmithKline Beecham Corporation, priority 1999, published 2004)
